Patent US20050112573A1, “Method of detecting toxic substance” (priority 2001, published 2005)

Tested on: yeast genes (level of expressed mRNA)
Experiment: DNA chip analysis of expressed mRNA of yeast genes after 2 h culture with a toxic chemical substance
Format: cell-based, Saccharomyces cerevisiae S288C
Description: Yeast (Saccharomyces cerevtisiae S288C (α SUC2mal mel gap2 CUP1)) were cultured at 25° C. on YPD medium (yeast extract 1%, polypepton 2%, glucose 2%). One of toxic chemical substances was added to the cell at logarithmic growth phase, and the cell was further cultured for two hours. Cell was cultured without any chemical substance in the same condition, and was used as control. Concentrations of the chemical substances were defined to inhibit the growth of the yeast but not lead to death.
After the completion of cultivation, the culture was centrifuged to collect the cells. To the cells, sodium acetate buffer (50 mM sodium acetate, 10 mM EDTA, 1% SDS) was added, and the mixture was shaken at 65° C. for five minutes, followed by returning to room temperature, and obtaining the supernatant, which procedure was repeated two times. To the supernatant, ½ amount of a solution of phenol/chloroform was added, and the mixture was centrifuged to give a supernatant, which was added with an equal amount of chloroform, and the mixture was centrifuged to give a supernatant. To the supernatant, an equal amount of isopropanol containing 0.3 M sodium acetate was added, and the mixture was allowed to stand at room temperature for 30 minutes, after which the mixture was centrifuged to give a sediment of the whole RNAs. Seventy % ethanol was added to the sediment, and the mixture was again centrifuged to give a sediment, which was then dried and dissolved in water. mRNA was isolated from the whole RNAs as followings. In view of the fact that a poly A chain is attached to the 3′ terminus of mRNA, a polynucleotide having a poly T structure which was immobilized on the surface of latex beads was used to trap the mRNA, and then the mRNA was washed and eluted with spine column (Oligotex-dT30<Super>mRNA Purification Kit, Takara). Reverse transcription of the mRNA was conducted with a reverse transcriptase (Super Script II Reverse Transcriptase; catalogue No. 18064-014, GibcoBRL) using fluorescence-labeled nucleotides to give cDNAs that were introduced with Cy3-dUTP or Cy5-dUTP during the reverse transcription.
The labeled cDNAs were dissolved in TE buffer (10 mM Tris-HCl/1 mM EDTA, pH8.0), and the solution was dropped on the DNA chip containing the whole genes of yeast (DNA Chip Research Inc. Japan) so that the cDNAs were hybridized on the DNA chip at 65° C. for over 12 hours. The fluoresces intensity of the DNA chip was read with a scanner, and the ratio relative to the fluorescence intensity resulting from the absence of chemical substance was estimated as the following, which is shown in Tables 1 to 9: [formula]
In the Tables, “Intensity” indicated in the rightmost column is a value of the level of expressed mRNA of each gene in control cells as divided by the average level of the expressions of the whole genes.

S=C([S-])NCCNC(=S)[S-].[Zn+2] [(11), zinc N,N′-ethylenebis(dithiocarbamate)]
3.2: The level of expressed mRNA in the presence of chemical substance/absence: YCL042W (gene YCL042W)
1.6: level of expressed mRNA in the presence of chemical substance/in its absence (gene YDR410C) | The level of expressed mRNA in the presence of chemical substance/absence: YEL044W (gene YEL044W) | level of expressed mRNA in the presence of chemical substance/in its absence (gene YGL001C) | The level of expressed mRNA in the presence of chemical substance/absence: YGR237C (gene YGR237C) | The level of expressed mRNA in the presence of chemical substance/absence: YGR250C (gene YGR250C)
5.4: The level of expressed mRNA in the presence of chemical substance/absence: YFL042C (gene YFL042C)
1.1: The level of expressed mRNA in the presence of chemical substance/absence: YAR047C (gene YAR047C) | level of expressed mRNA in the presence of chemical substance/in its absence (gene YAR071W) | level of expressed mRNA in the presence of chemical substance/in its absence (gene YBR050C) | level of expressed mRNA in the presence of chemical substance/in its absence (gene YBR145W) | The level of expressed mRNA in the presence of chemical substance/absence: YCL044C (gene YCL044C) | The level of expressed mRNA in the presence of chemical substance/absence: YCR007C (gene YCR007C) | The level of expressed mRNA in the presence of chemical substance/absence: YDL193W (gene YDL193W) | The level of expressed mRNA in the presence of chemical substance/absence: YDR078C (gene YDR078C) | level of expressed mRNA in the presence of chemical substance/in its absence (gene YGL039W) | level of expressed mRNA in the presence of chemical substance/in its absence (gene YGL134W)
2.3: level of expressed mRNA in the presence of chemical substance/in its absence (gene YBL001C)
0.5: The level of expressed mRNA in the presence of chemical substance/absence: YGR156W (gene YGR156W)
0.7: The level of expressed mRNA in the presence of chemical substance/absence: YAL017W (gene YAL017W) | The level of expressed mRNA in the presence of chemical substance/absence: YAR064W (gene YAR064W) | The level of expressed mRNA in the presence of chemical substance/absence: YBR012C (gene YBR012C) | level of expressed mRNA in the presence of chemical substance/in its absence (gene YBR029C) | The level of expressed mRNA in the presence of chemical substance/absence: YDL233W (gene YDL233W) | The level of expressed mRNA in the presence of chemical substance/absence: YDR090C (gene YDR090C) | The level of expressed mRNA in the presence of chemical substance/absence: YDR221W (gene YDR221W)
0.9: The level of expressed mRNA in the presence of chemical substance/absence: YBL100C (gene YBL100C) | level of expressed mRNA in the presence of chemical substance/in its absence (gene YBR023C) | The level of expressed mRNA in the presence of chemical substance/absence: YDR109C (gene YDR109C) | The level of expressed mRNA in the presence of chemical substance/absence: YDR425W (gene YDR425W) | The level of expressed mRNA in the presence of chemical substance/absence: YDR485C (gene YDR485C) | level of expressed mRNA in the presence of chemical substance/in its absence (gene YER026C) | The level of expressed mRNA in the presence of chemical substance/absence: YER092W (gene YER092W) | level of expressed mRNA in the presence of chemical substance/in its absence (gene YGL154C) | The level of expressed mRNA in the presence of chemical substance/absence: YGR139W (gene YGR139W)
2.8: level of expressed mRNA in the presence of chemical substance/in its absence (gene YDL022W)
3.7: level of expressed mRNA in the presence of chemical substance/in its absence (gene YEL011W)
3.9: level of expressed mRNA in the presence of chemical substance/in its absence (gene YFR015C)
1.7: The level of expressed mRNA in the presence of chemical substance/absence: YAL014C (gene YAL014C) | The level of expressed mRNA in the presence of chemical substance/absence: YDR140W (gene YDR140W) | The level of expressed mRNA in the presence of chemical substance/absence: YDR366C (gene YDR366C) | The level of expressed mRNA in the presence of chemical substance/absence: YGR243W (gene YGR243W)
1.4: level of expressed mRNA in the presence of chemical substance/in its absence (gene YAL044C) | The level of expressed mRNA in the presence of chemical substance/absence: YBR129C (gene YBR129C) | The level of expressed mRNA in the presence of chemical substance/absence: YBR281C (gene YBR281C) | The level of expressed mRNA in the presence of chemical substance/absence: YDR071C (gene YDR071C) | The level of expressed mRNA in the presence of chemical substance/absence: YGR038W (gene YGR038W)
4.0: level of expressed mRNA in the presence of chemical substance/in its absence (gene YAL012W)
2.6: The level of expressed mRNA in the presence of chemical substance/absence: YDL046W (gene YDL046W)
0.4: The level of expressed mRNA in the presence of chemical substance/absence: YBR124W (gene YBR124W) | The level of expressed mRNA in the presence of chemical substance/absence: YDR278C (gene YDR278C) | level of expressed mRNA in the presence of chemical substance/in its absence (gene YDR380W)
1.9: level of expressed mRNA in the presence of chemical substance/in its absence (gene YBR183W) | The level of expressed mRNA in the presence of chemical substance/absence: YDR338C (gene YDR338C)
1.5: level of expressed mRNA in the presence of chemical substance/in its absence (gene YBR111C) | The level of expressed mRNA in the presence of chemical substance/absence: YBR255W (gene YBR255W) | level of expressed mRNA in the presence of chemical substance/in its absence (gene YCL009C) | The level of expressed mRNA in the presence of chemical substance/absence: YCL056C (gene YCL056C) | level of expressed mRNA in the presence of chemical substance/in its absence (gene YER069W) | The level of expressed mRNA in the presence of chemical substance/absence: YER182W (gene YER182W)
2.4: level of expressed mRNA in the presence of chemical substance/in its absence (gene YBR299W)
2.0: level of expressed mRNA in the presence of chemical substance/in its absence (gene YBR035C) | The level of expressed mRNA in the presence of chemical substance/absence: YBR287W (gene YBR287W) | The level of expressed mRNA in the presence of chemical substance/absence: YDL089W (gene YDL089W)
1.2: The level of expressed mRNA in the presence of chemical substance/absence: YBR013C (gene YBR013C) | The level of expressed mRNA in the presence of chemical substance/absence: YBR066C (gene YBR066C) | level of expressed mRNA in the presence of chemical substance/in its absence (gene YCR048W) | The level of expressed mRNA in the presence of chemical substance/absence: YDL173W (gene YDL173W) | The level of expressed mRNA in the presence of chemical substance/absence: YDR504C (gene YDR504C) | The level of expressed mRNA in the presence of chemical substance/absence: YGL045W (gene YGL045W) | The level of expressed mRNA in the presence of chemical substance/absence: YGR266W (gene YGR266W) | The level of expressed mRNA in the presence of chemical substance/absence: YGR277C (gene YGR277C)
1.8: level of expressed mRNA in the presence of chemical substance/in its absence (gene YBR014C) | level of expressed mRNA in the presence of chemical substance/in its absence (gene YCL064C) | level of expressed mRNA in the presence of chemical substance/in its absence (gene YDR019C) | level of expressed mRNA in the presence of chemical substance/in its absence (gene YGL104C)
0.8: level of expressed mRNA in the presence of chemical substance/in its absence (gene YBR068C) | The level of expressed mRNA in the presence of chemical substance/absence: YBR162C (gene YBR162C) | level of expressed mRNA in the presence of chemical substance/in its absence (gene YCR037C) | The level of expressed mRNA in the presence of chemical substance/absence: YDR281C (gene YDR281C) | The level of expressed mRNA in the presence of chemical substance/absence: YFR026C (gene YFR026C) | level of expressed mRNA in the presence of chemical substance/in its absence (gene YGL022W) | The level of expressed mRNA in the presence of chemical substance/absence: YGL088W (gene YGL088W) | The level of expressed mRNA in the presence of chemical substance/absence: YGL183C (gene YGL183C) | level of expressed mRNA in the presence of chemical substance/in its absence (gene YGL209W) | level of expressed mRNA in the presence of chemical substance/in its absence (gene YGR060W) | The level of expressed mRNA in the presence of chemical substance/absence: YGR211W (gene YGR211W)
2.1: level of expressed mRNA in the presence of chemical substance/in its absence (gene YDR487C)
1.0: level of expressed mRNA in the presence of chemical substance/in its absence (gene YAL038W) | The level of expressed mRNA in the presence of chemical substance/absence: YAL049C (gene YAL049C) | The level of expressed mRNA in the presence of chemical substance/absence: YDR421W (gene YDR421W) | level of expressed mRNA in the presence of chemical substance/in its absence (gene YGL126W) | level of expressed mRNA in the presence of chemical substance/in its absence (gene YGL253W) | The level of expressed mRNA in the presence of chemical substance/absence: YGR198W (gene YGR198W) | The level of expressed mRNA in the presence of chemical substance/absence: YGR210C (gene YGR210C)
0.3: The level of expressed mRNA in the presence of chemical substance/absence: YDR128W (gene YDR128W)
1.3: level of expressed mRNA in the presence of chemical substance/in its absence (gene YAL054C) | level of expressed mRNA in the presence of chemical substance/in its absence (gene YBR222C) | level of expressed mRNA in the presence of chemical substance/in its absence (gene YCR098C) | The level of expressed mRNA in the presence of chemical substance/absence: YDR133C (gene YDR133C) | The level of expressed mRNA in the presence of chemical substance/absence: YDR316W (gene YDR316W) | level of expressed mRNA in the presence of chemical substance/in its absence (gene YDR502C) | level of expressed mRNA in the presence of chemical substance/in its absence (gene YEL020C) | The level of expressed mRNA in the presence of chemical substance/absence: YFR056C (gene YFR056C) | The level of expressed mRNA in the presence of chemical substance/absence: YGL057C (gene YGL057C) | The level of expressed mRNA in the presence of chemical substance/absence: YGL223C (gene YGL223C)
0.1: The level of expressed mRNA in the presence of chemical substance/absence: YAL018C (gene YAL018C) | The level of expressed mRNA in the presence of chemical substance/absence: YBR051W (gene YBR051W) | level of expressed mRNA in the presence of chemical substance/in its absence (gene YDR009W)
0.6: The level of expressed mRNA in the presence of chemical substance/absence: YBL044W (gene YBL044W) | The level of expressed mRNA in the presence of chemical substance/absence: YBR063C (gene YBR063C) | The level of expressed mRNA in the presence of chemical substance/absence: YDR250C (gene YDR250C) | The level of expressed mRNA in the presence of chemical substance/absence: YDR271C (gene YDR271C) | The level of expressed mRNA in the presence of chemical substance/absence: YGL041C (gene YGL041C)
